Experimental findings from patent US20220313780A1, “METHODS AND COMPOSITIONS FOR TREATING INFLAMMATORY CONDITIONS” (THE SCRIPPS RESEARCH INSTITUTE, priority 2019, published 2022) are described below.

The experiment relates to caspase 1. Nature of the experiment: Caspase 1 activity assay in PMA-differentiated THP1 cells treated with LPS and ATP. Format: cell-based, human. The settings on record: for anti-inflammatory activities relative to that of TR47: summary statement on exemplified TR47 fragments and variants. On the procedure:
THP1-null (THP1) cells were plated at a final concentration of 1×10^6/mL in 96 well plates and incubated with PMA (0.5 μM) for 3 hours 37° C. in supplemented RPMI. Media was subsequently changed every 24 hours for 3 days. Various subsets of wells were selected and cells were treated for 60 minutes at 37° C. in serum-free RPMI with: (A) APC (4 μg/mL), TR47 (50 μM-2 nM), scrTR47 (50 μM), SFLLRN (50 μM), TFLLRN (50 μM); (B) P3R (50 μM-500 nM), P3K (50 μM); (C) APC (4 or 1 μg/mL), TR47 (8 nM), P3R (500 nM) or TR47+P3R (8 nM and 500 nM, respectively); (D) TR47 (0-128 nM) (●)±P3R (500 nM) (□); (E) P3R (0-500 nM) (●)±TR47 (1 nM) (□). Following DPBS wash, cells were incubated with LPS (1 μg/mL) for 3 hours at 37° C. in serum-free RPMI. After a DPBS wash, cells were incubated with ATP (5 mM) in the presence or absence of 10 μM YVAD (caspase 1 inhibitor) or 2.5 μM ZVAD (pan-caspase inhibitor) for 45 minutes at 37° C., prior to performing the caspase 1 activity assay following manufacturer's directions measuring luminescence (relative luminescent units, RLU). (D & E) Experimental caspase 1 activity was normalized to YVAD (caspase 1 inhibitor) luminescence units. (A-E) Data points represent mean±S.D. of at least 3 independent experiments. *P<0.05 (vs. LPS+ATP); #P<0.05 (vs. LPS+ATP & APC, TR47 or P3R); **P<0.005 (vs. LPS+ATP & TR47+500 nM P3R); n.s. not significant.
THP1 cells were plated at a final concentration of 1×10^6/mL in 96 well plates and incubated with PMA (0.5 μM) for 3 hours 37° C. in supplemented RPMI. Media was subsequently changed every 24 hours for 3 days. Selected wells were treated with APC (4 μg/mL), (A) 50 μM or (B) 2 μM of P3R, P3Rm, P3R 51-65, P3R 51-59, P3R 54-59 or P3R 59-65 for 1 hour, washed with DPBS, and incubated with LPS (1 μg/mL) for 3 hours at 37° C. in serum-free RPMI. Cells were washed with DPBS and incubated with ATP (5 mM) in the presence or absence of 10 μM YVAD (caspase 1 inhibitor; C1i) or 2.5 μM ZVAD (pan-caspase inhibitor; pCi) for 45 minutes at 37° C., prior to performing the caspase 1 activity assay following manufacturer's directions measuring luminescence (relative luminescent units, RLU). (C) Diagram showing the PAR3 sequence, peptide sequences and relative (anti-inflammatory) activity. These include sequences of P3R (SEQ ID NO:4), P3Rm (SEQ ID NO:8), P3R 51-65 (SEQ ID NO:9), P3R 51-59 (SEQ ID NO:10), P3R 54-59 (SEQ ID NO:54) and P3R 59-65 (SEQ ID NO:55).
THP1 cells were plated at a final concentration of 1×10^6/mL in 96 well plates and incubated with PMA (0.5 μM) for 3 hours 37° C. in supplemented RPMI. Media was subsequently changed every 24 hours for 3 days. Selected wells were treated with APC (4 μg/mL), TR47, in (A) 9-mer (TR47 9-mer; NPNDKYEPF (SEQ ID NO:36)) or Ac-TR47 (Acylated TR47) at either 50 μM or 10 nM or (B) 50 μM of 16-mer-TR47, 8-mer-TR47, 6-mer-TR47, TR47 N−1, TR47 N−2, TR47 N−5, TR47AQ, TR47AD, TR47AA or TR48-54 for 1 hour, washed with DPBS, and incubated with LPS (1 μg/mL) for 3 hours at 37° C. in serum-free RPMI. Cells were washed with DPBS and incubated with ATP (5 mM) in the presence or absence of 10 μM YVAD (caspase 1 inhibitor; C1i) or 2.5 μM ZVAD (pan-caspase inhibitor; pCi) for 45 minutes at 37° C., prior to performing the caspase 1 activity assay following manufacturer's directions measuring luminescence (relative luminescent units, RLU). #P<0.001 (vs. LPS+ATP), **P<0.005 (vs. LPS+ATP), * (P<0.05 vs. LPS+ATP). (C) Diagram showing the PAR1 sequence, peptide sequences and relative (anti-inflammatory) activity. These include sequences of TR47 (SEQ ID NO:7), Ac-TR47 (SEQ ID NO:56), 16-mer-TR47 (SEQ ID NO:43), 9-mer-TR47 (SEQ ID NO:36), 8-mer-TR47 (SEQ ID NO:35), 6-mer-TR47 (SEQ ID NO:33), TR47 N−1 (SEQ ID NO:47), TR47 N−2 (SEQ ID NO:51), TR47 N−5 (SEQ ID NO:48), TR47AQ (SEQ ID NO:49), TR47AD (SEQ ID NO:52), TR47AA (SEQ ID NO:50) and TR48-54 (SEQ ID NO:53). […]

Setting [1] is: peptide 50 μM for 60 min before LPS (1 μg/mL) and ATP (5 mM), THP1 cells.

No end group written: not given here.

Take `CC(C)(O)c1coc(S(=O)(=O)NC(=O)Nc2c3c(cc4c2CCC4)CCC3)c1` [MCC950, reference compound]: the “caspase 1 activity” value (NLRP3 inhibitor MCC950 10 μM for 30 minutes after LPS, THP1-null cells treated with APC, TR47 or P3R) is listed as “a significant reduction in caspase 1 activity across all treatments tested”.

APNDKYEPFWEDEEKNESGL [TR47ΔA]: the “anti-inflammatory activities relative to that of TR47” value is listed as “maintain substantial anti-inflammatory activities relative to that of TR47”. Also, the “caspase 1 activity” value under setting [1] was “similarly reduced caspase 1 activity”.

Regarding “Ac-TR47: Acylated TR47 (N-terminus of TR47 acylated) (Ac-NPNDKYEPF; also: N-terminal acylation, acyl group not given here)”, the “caspase 1 activity” value under setting [1] was “no reduction in caspase 1 activity was observed”.

Regarding FPFSALEGWTGATIT [P3R 51-65], the caspase-1 activity entry (PAR3 peptide 0 to 16 nM in the presence or absence of 1 nM P1(47-66)) is listed as “only in the presence of 1 nM P1(47-66) was a significant reduction in caspase-1 activity seen”. Also, the “caspase 1 activity” value (peptide 50 μM for 60 min before LPS (1 μg/mL) and ATP (5 mM), THP1 cells, listed as P3(51-65)) is “alone is anti-inflammatory at relatively high concentrations”. For the same molecule, the “anti-inflammatory effect (caspase-1 activity)” value (from here on “anti-inflammatory effect”) (peptide at 200 nM) was “neither the isolated PAR1-derived peptide nor the isolated PAR3-derived peptide had an any anti-inflammatory effect”.

As to GAPPNSFEEFPFS [P3Rm], the “synergistic anti-inflammatory activity (caspase 1 activity)” value (P3Rm (0 or 16 nM) combined with TR47 (1 nM), FIG. 6A) is reported as “synergy observed”. Besides, the “caspase 1 activity” value is, setting by setting: (peptide 2 μM for 1 hour before LPS and ATP, THP1 cells) “this effect was lost”; under setting [1], “a significant reduction in caspase 1 activity was observed”.

Take NDKYEPFWEDEEKNESGL [TR47 N−2]: the “caspase 1 activity” value under setting [1] is given as “a loss in inhibition of caspase 1 activity”.

For the molecule NPNDKY [6-mer TR47], the “caspase 1 activity” value under setting [1] is listed as “lost its inhibitory activity”.

As for NPNDKYEP [8-mer TR47], the “anti-inflammatory activities relative to that of TR47” value was “maintain substantive anti-inflammatory activities relative to that of TR47”. Moreover, the “caspase 1 activity” value under setting [1] is “significantly reduced caspase 1 activity”.

For the molecule NPNDKYEPF [9-mer], the “anti-inflammatory activities relative to that of TR47” value was “maintain substantive anti-inflammatory activities relative to that of TR47”. Also, the “caspase 1 activity” value under setting [1] is “reduced caspase 1 activity similar to the 20-mer TR47”. In addition, where the note is “peptide at 200 nM”, the “anti-inflammatory effect” value is “neither the isolated PAR1-derived peptide nor the isolated PAR3-derived peptide had an any anti-inflammatory effect”. Besides, the “anti-inflammatory effect” value (peptide at 500 nM) is “alone was anti-inflammatory”.

As for NPNDKYEPFWEDEEKN [16-mer TR47], the “anti-inflammatory activities relative to that of TR47” value is “maintain substantive anti-inflammatory activities relative to that of TR47”. For the same molecule, the “caspase 1 activity” value under setting [1] is on record as “significantly reduced caspase 1 activity”.

Take “P3R 54-59: fragment of PAR3-derived peptide P3R, residues 54-59 (SALEGW; UniProt O00254 54-59, looked up, fragment)”: the “caspase 1 activity” value under setting [1] is listed as “only partially reduced caspase 1 activity”.

For “P3R 59-65: fragment of PAR3-derived peptide P3R, residues 59-65 (WTGATIT; UniProt O00254 59-65, looked up, fragment)”, the “caspase 1 activity” value under setting [1] is on record as “only partially reduced caspase 1 activity”.

As for PNDKYEPFWEDEEKNESGL [TR47 N−1], the “anti-inflammatory activities relative to that of TR47” value is recorded as “maintain substantial anti-inflammatory activities relative to that of TR47”. Further, the “synergistic anti-inflammatory activity (caspase 1 activity)” value (TR47(N−1) (0 or 4 nM) combined with 500 nM P3R, FIG. 6B) is given as “synergy observed”. In addition, the “caspase 1 activity” value under setting [1] is “still reduced caspase 1 activity”.

In the case of QPNDKYEPFWEDEEKNESGL [TR47ΔQ], the “anti-inflammatory activities relative to that of TR47” value is “maintain substantial anti-inflammatory activities relative to that of TR47”. Further, under setting [1], the “caspase 1 activity” value is on record as “similarly reduced caspase 1 activity”.

SFLLRN [reference compound]: the “caspase 1 activity” value under setting [1] is on record as “neither a scrambled TR47 nor the peptides, SFLLRN or TFLLRN which resemble the novel N-terminal amino acid sequence generated by thrombin's PAR1 cleavage at Arg41 had any effect on caspase 1 activity”.

Turning to “TFLLRN (SFLLRN; UniProt P25116 42-47, looked up, fragment) [reference compound]”, the “caspase 1 activity” value under setting [1] is recorded as “neither a scrambled TR47 nor the peptides, SFLLRN or TFLLRN which resemble the novel N-terminal amino acid sequence generated by thrombin's PAR1 cleavage at Arg41 had any effect on caspase 1 activity”.

“TR48-54: truncated TR-peptide, removing one amino acid from the N-terminus and part of the C-terminus (FEEFPFS; UniProt O00254 48-54, looked up, fragment)”: the “caspase 1 activity” value under setting [1] is on record as “did not reduce caspase 1 activity”.

In the case of YEPFWEDEEKNESGL [TR47 N−5], the “anti-inflammatory activities relative to that of TR47” value is recorded as “maintain substantial anti-inflammatory activities relative to that of TR47”. Further, the “caspase 1 activity” value under setting [1] was “a reduction in caspase 1 activity was observed”.
